Test results as given in ChEMBL document CHEMBL3745652, “Synthesis and evaluation of pretomanid (PA-824) oxazolidinone hybrids” (Bioorg Med Chem Lett, 2016).
Converted amounts (≈) assume the structure as drawn. The source made the active and inactive calls. The calls are words filed in the database; no cut-off is given here.

What was measured:
Vero = assay: Cytotoxicity against African green monkey Vero cells by cell titer glo assay; format: cell-based; conditions: Chlorocebus sabaeus
[1] = Half life in mouse liver microsomes; format: ADME; conditions: microsomes
[2] = Apparent permeability from apical to basolateral side in human Caco2 cells; format: ADME, cell-based; conditions: caco-2
[3] = Apparent permeability from basolateral to apical side in human Caco2 cells; format: ADME, cell-based; conditions: caco-2
[4] = Plasma protein binding in human; format: ADME, cell-free
Mus musculus = assay: Toxicity in C57BL/6 mouse at 300 mg/kg, po after 3 days; format: organism-based; conditions: in vivo, 72 h
[5] = system: Mycobacterium tuberculosis; assay: Antimicrobial activity against Mycobacterium tuberculosis H37Rv infected in C57BL/6 mouse assessed as reduction in bacterial load at 100 mg/kg, po after 28 days; format: functional, organism-based
[6] = AUC(infinity) in C57BL/6 mouse at 10 mg/kg, iv; format: ADME, organism-based; set-up: dose 10 mg/kg, time infinity, route intravenous; conditions: in vivo
[7] = Half life in C57BL/6 mouse at 10 mg/kg, iv; format: ADME, organism-based; conditions: in vivo
[8] = Clearance in C57BL/6 mouse at 10 mg/kg, iv; format: ADME, organism-based; conditions: in vivo
[9] = Volume of distribution at steady state in C57BL/6 mouse at 10 mg/kg, iv; format: ADME, organism-based; conditions: in vivo, read-out: Vdss
Bacillus anthracis = assay: Antimicrobial activity against Bacillus anthracis; format: functional, organism-based
Bacillus subtilis = assay: Antimicrobial activity against Bacillus subtilis; format: functional, organism-based
Enterococcus faecalis = assay: Antimicrobial activity against Enterococcus faecalis; format: functional, organism-based
Staphylococcus aureus = assay: Antimicrobial activity against Staphylococcus aureus; format: functional, organism-based
Streptococcus pyogenes = assay: Antimicrobial activity against Streptococcus pyogenes; format: functional, organism-based
Streptococcus pneumoniae = assay: Antimicrobial activity against Streptococcus pneumoniae; format: functional, organism-based
Acinetobacter baumannii = assay: Antimicrobial activity against Acinetobacter baumannii; format: functional, organism-based
Escherichia coli = assay: Antimicrobial activity against Escherichia coli; format: functional, organism-based
Klebsiella pneumoniae = assay: Antimicrobial activity against Klebsiella pneumoniae; format: functional, organism-based
[10] = system: Mycobacterium tuberculosis; assay: Antimicrobial activity against Mycobacterium tuberculosis H37Rv assessed as growth inhibition after 7 days by microbroth dilution method; format: functional; conditions: 168 h

Compound | IC50 (Vero) [µg/mL] | t1/2 [1] [min] | Papp [2] [×10⁻⁶ cm/s] | Papp [3] [×10⁻⁶ cm/s] | PPB [4] [%] | Activity (Mus musculus) | Activity [5] | AUC(0-inf) [6] [ng·h/mL] | half-life [7] [min] | clearance [8] [mL/min/kg] | Vd [9] [L/kg] | Activity (Bacillus anthracis) | Activity (Bacillus subtilis) | Activity (Enterococcus faecalis) | Activity (Staphylococcus aureus) | Activity (Streptococcus pyogenes) | Activity (Streptococcus pneumoniae) | Activity (Acinetobacter baumannii) | Activity (Escherichia coli) | Activity (Klebsiella pneumoniae) | further results
O=C1COCCN1c1ccc(CO[C@@H]2COc3nc([N+](=O)[O-])cn3C2)cc1 | > 100 | 1100 | 40.08 | 30.56 | 50.4 | Non-toxic | inactive | 7410 | 28.8 | 22.5 | 0.79 | inactive | inactive | inactive | inactive | inactive | inactive | inactive | inactive | inactive | MIC [10]: 0.78 µg/mL (≈ 2.08 µM)
O=C1COCCN1c1ccc(CO[C@@H]2COc3nc([N+](=O)[O-])cn3C2)cc1F | > 100 | 792 | 50.57 | 31.67 | 67.8 | Non-toxic | inactive | 5180 | 16.8 | 32.3 | 0.63 | inactive | inactive | inactive | inactive | inactive | inactive | inactive | inactive | inactive | MIC [10]: 0.78 µg/mL (≈ 1.99 µM)
